# In patent publication US10881702B2, “Celastrol and derivatives thereof for the treatment of tumours and precancerous diseases of the skin” (PIERRE FABRE MEDICAMENT, priority 2016, dated 2021):
# Legend:
# [1] = tested on: healthy skin (epidermal keratinocytes); format: in vivo, mice (SKH-1); settings: occlusive patch 30 h
# Text: Apoptosis is a fundamental event in cell development (proliferation). The visualisation of apoptosis and the subsequent healing phenomenon reflects the efficacy of medicaments in the treatment of precancerous and cancerous cells. Picato® (0.015% ingenol mebutate) is a product on the market which is indicated for the treatment of actinic keratosis. Picato® is known to induce cell death by a necrotic effect that rapidly eliminates dead cells, followed by a healing phase. To evaluate the “apoptotic” power of celastrol on skin cells (epidermal keratinocytes), we compared the apoptotic effect induced by the topical application of celastrol compared to that of a product already on the market.
# (§1) Non-inbred hairless SKH-1 strain mice are most commonly used in preclinical dermatological research. These non-pigmented and immunocompetent mice allow easy manipulation of the skin, application of topical agents, exposure to UV radiation and easy visualisation of the cutaneous response. Wound healing, acute biological photo responses and skin carcinogenesis are well characterised in this mouse strain. In addition, the tumours induced in these mice resemble, at both the molecular and the morphological level, UV-induced malignant skin tumours in humans. In this study on healthy skin, 6- to 8-week-old SKH-1 females (18 to 20 grams; Charles River Laboratories) are treated topically with the various compounds.
# (§2) Picato® (0.015% ingenol mebutate), used in humans to treat actinic keratosis lesions, was administered topically to the animals (2 to 3 animals per group) for 24 hours under a 19-mm-diameter, i.e., 2.83 cm^2, occlusive patch (Hill Top Research, USA). The patch is loaded with 200 μL of Picato® cream, i.e. 30 μg of active ingredient. The treated skin area is delimited by tattooing on each mouse and the patch is held on the mouse using Tegaderm™ film and Omnifix® and Elastoplast™ adhesive tape. The occlusive dressing is removed after 24 hours, and the animals are followed clinically for 3 to 4 weeks.
# Celastrol (Euromedex) is formulated in a vehicle consisting of 5% DMSO-70% glycerol-25% water. The pH is adjusted by adding soda to around 8-8.5 in order to completely solubilise the powder. The initial concentration is 10 mg/mL then serial dilutions in the vehicle yield concentrations of 5 and 2.5 mg/mL. Celastrol is applied topically for 30 hours under a 19-mm-diameter occlusive patch. The patches are loaded with 200 μL of the various celastrol solutions, i.e. 2000 μg, 1000 μg or 500 μg of active ingredient.
# The treated skin area is delimited by tattooing on each mouse and the patch is held on the mouse using Tegaderm™ film and Omnifix® and Elastoplast™ adhesive tape. The occlusive bandage is removed after 30 hours and the animals are followed clinically for 3 to 4 weeks.
# The animals are weighed twice per week. The treated area of each animal is photographed two to three times per week in order to follow the progression of the cutaneous reaction and healing.
# [2] = Clinical monitoring: body weight of topically treated SKH-1 mice; format: in vivo, mice (SKH-1)
# Text: as §1
# as §2, with “weeks. […]” for “weeks.”
structure (smiles),measurement,setting,value
CC1=C(O)C(=O)C=C2C1=CC=C1[C@@]2(C)CC[C@@]2(C)[C@@H]3C[C@](C)(C(=O)O)CC[C@]3(C)CC[C@]12C [celastrol],scar area on day 28,[1]; celastrol 1000 μg and 2000 μg doses,slight hypertrophy of the scar area
same,cutaneous reaction first visible,"[1]; celastrol 500, 1000, 2000 μg, 24 hours after discontinuation",3 days
same,healing process starts,"[1]; celastrol 500-2000 μg, dose-dependent",7 days
same,depth of the pro-apoptotic action,"[1]; celastrol 500-2000 μg, localised in the epidermis",superficial
same,dose from which apoptosis of epidermal cells is induced in vivo,"[1]; celastrol topical, dose-dependent",≥ 500 μg/application
same,haemorrhagic zones,"[1]; celastrol, even at the highest dose (2000 μg)",no haemorrhagic zones are observed
same,systemic toxicity / tolerance,"[2]; topical route at the doses used, SKH-1 mice",no systemic toxicity
same,effect on the weight of SKH-1 mice,"[2]; topical, occlusive patch, Picato 200 μL (30 μg) 24 h, celastrol 500-2000 μg 30 h, weighed twice per week",no effect on the weight
